The values below come from PMC8659243, “Design, Synthesis and Tumour-Selective Toxicity of Novel 1-[3-{3,5-Bis(benzylidene)-4-oxo-1-piperidino}-3-oxopropyl]-4-piperidone Oximes and Related Quaternary Ammonium Salts” (Molecules, 2021).

SMILES strings stand for the structures. Read-outs that look alike come from different tables or passages of the source.

Data set [1] deals with Ca9-22 cells. As to the kind of experiment: Cytotoxicity against Ca9-22 cells, MTT method, 48 h. The class given is cell-based, human. As to conditions: for CC50: Homo sapiens, read-out: CC50 Ca9-22; for SI Ca9-22: average CC50 towards HGF, HPLF, HPC divided by CC50 against Ca9-22. The method, boiled down:
(§1)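 Oral squamous carcinoma lines and normal oral cells (gingival fibroblast, periodontal ligament fibroblast, pulp) were exposed to various compound concentrations in DMEM with 10% heat-inactivated FBS at 37 °C for 48 h. Viability was read by MTT.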

Data set [2] concerns HSC-2 cells. As to the kind of experiment: Cytotoxicity against HSC-2 cells, MTT method, 48 h. The class given is cell-based, human. As to conditions: for CC50: Homo sapiens, HSC-2, concentration required to kill 50% of the cells, 48 h, MTT; for SI HSC-2: average CC50 towards HGF, HPLF, HPC divided by CC50 against HSC-2. Put shortly: as §1
Data set [3] concerns HSC-4 cells. As to the kind of experiment: Cytotoxicity against HSC-4 cells, MTT method, 48 h. The data set is classed as cell-based, human. The note with it: for CC50: Homo sapiens, read-out: CC50 HSC-4; for SI HSC-4: average CC50 towards HGF, HPLF, HPC divided by CC50 against HSC-4. The method, boiled down:
as §1

For data set [4], the system named is Ca9-22, HSC-2 and HSC-4 cells. As to the kind of experiment: Average over Ca9-22, HSC-2 and HSC-4 neoplastic cells. The data set is classed as cell-based, human. The note with it: Homo sapiens, read-out: Average CC50. Put shortly: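 Compounds applied at various concentrations to human oral squamous carcinoma lines in DMEM with 10% heat-inactivated FBS for 48 h at 37 °C; viability read by MTT. Values are averaged across the three tumour lines.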

Data set [5] is described as follows: Cytotoxicity against non-malignant HGF cells, MTT method, 48 h. The class given is cell-based. As to conditions: human, gingival fibroblasts (HGF). The method, boiled down:
as §1

A short description of data set [6]: Cytotoxicity against non-malignant HPLF cells, MTT method, 48 h. The class given is cell-based. As to conditions: human, periodontal ligament fibroblasts (HPLF). Put shortly: as §1
Data set [7] in a line: Cytotoxicity against non-malignant HPC cells, MTT method, 48 h. The data set is classed as cell-based. The note with it: human, pulp cells (HPC). The method, boiled down:
as §1

Data set [8] in a line: Average over HGF, HPLF and HPC non-malignant cells. The note with it: human, HPLF and HPC non-malignant cells (average of the three). The data set is classed as cell-based. Put shortly: as §1
The subject of data set [9] is CEM T-lymphoblastic leukemia cells. As to the kind of experiment: Cytotoxicity against CEM cells, MTT method, 24 h. The data set is classed as cell-based. As to conditions: Homo sapiens, CCRF-CEM, concentration required to inhibit cell growth by 50%. Here is the method:
The method used for the evaluation of various compounds against human CEM cells has been reported previously. In brief, cells were grown in RPMI-1640 medium supplemented with 10% heat-inactivated fetal bovine serum. Different concentrations of compounds were added to the media, and after 24 h incubation, cytotoxicity was measured by the MTT method.

Data set [10] concerns Ca9-22 cells. As to the kind of experiment: Cell cycle analysis and morphological changes in Ca9-22 cells. The class given is cell-based, human. The note with it: 24 h. How it is done: Treated and untreated Ca9-22 cells (approximately 10^6 cells) were harvested, fixed with 1% paraformaldehyde, treated with 0.2 mg/mL RNase A (preheated for 10 min at 100 °C to inactivate DNase), stained for 15 min with 0.01% propidium iodide in the presence of 0.01% NP-40 to prevent cell aggregation, filtered through Falcon® cell strainers ([…]) (Corning, NY, USA), subjected to cell sorting (SH800 Series; SONY Imaging Products and Solutions Inc., Kanagawa, Japan) and then analyzed with Cell Sorter Software version 2.1.2. (SONY Imaging Products and Solutions Inc., Kanagawa, Japan), as described previously.

The subject of data set [11] is CEM cells. As to the kind of experiment: Effect on mitochondrial membrane potential, JC-1 dye, flow cytometry. The class given is cell-based, human. As to conditions: CC50 and twice CC50 concentrations, 8 h. How it is done:
The effect of 4b,c on the mitochondrial membrane potential of CEM cells was determined using a literature method. In brief, the cells were incubated with the compounds for 8 h. The neoplasms were then stained with the JC-1 dye and the results were obtained using flow cytometry.

For data set [12], the system named is HL-60 (TB), K-562, RPMI-8226 and SR cells. The arrangement: method as in PMID 24657568. As to conditions: read-out: average IC50 against HL-60 (TB), K-562, RPMI-8226 and SR cells; cited from earlier work.
Data set [13] deals with COLO 205, HCC2998, HCT-15, KM12 and SW-620 cells. The note with it: read-out: average IC50 against COLO 205, HCC2998, HCT-15, KM12 and SW-620 cells; cited from earlier work.
[14] abbreviates: Ca9-22, concentration required to kill 50% of the cells, 48 h, MTT.
Where [15] appears, read: HSC-4, concentration required to kill 50% of the cells, 48 h, MTT.
[16] abbreviates: average of Ca9-22, HSC-2 and HSC-4.

In the case of `C[N+]1(CCC(=O)N2C/C(=C\c3ccc(Cl)c(Cl)c3)C(=O)/C(=C/c3ccc(Cl)c(Cl)c3)C2)CCC(=NO)CC1` (stereo not shown) [Compound 4d, (3~{E},5~{E})-3,5-bis[(3,4-dichlorophenyl)methylene]-1-[3-(4-hydroximino-1-piperidyl)propanoyl]piperidin-4-one methiodide], the CC50 in data set [1] (setting [14]) is 0.01 µM; in data set [2], 0.03 µM; in data set [3] (setting [15]) it was 0.03 µM; in [4] (setting [16]), 0.02 µM. Further, in data set [1], the “SI Ca9-22” value was 236. In data set [2], the “SI HSC-2” value was determined as 78.7. Moreover, the “SI HSC-4” value in data set [3] was found to be 78.7. The CC50 at 48 h in data set [5] was 1.15 ± 0.41 µM; in data set [6] it was 2.12 ± 0.2 µM; in data set [7], 3.81 ± 0.02 µM; in data set [8] it was 2.36 µM. This compound also gave a half-inhibitory concentration (IC50) in data set [9] of 5.19 ± 0.66 µM. Also, the “morphological change and cell cycle effect” value in [10] is listed as “induced cell spreading due to G2/M cell accumulation without the induction of a subG1 population”.
`C[N+]1(CCC(=O)N2C/C(=C\c3ccc(Cl)cc3)C(=O)/C(=C/c3ccc(Cl)cc3)C2)CCC(=NO)CC1` (stereo not shown) [Compound 4c, (3~{E},5~{E})-3,5-bis[(4-chlorophenyl)methylene]-1-[3-(4-hydroximino-1-piperidyl)propanoyl]piperidin-4-one methiodide]: the CC50 in [1] (setting [14]) is 0.02 ± 0.01 µM; in [2], 0.06 ± 0.01 µM; in [3] (setting [15]), 0.09 ± 0.03 µM; in data set [4] (setting [16]) it was 0.06 µM. Also, the “SI Ca9-22” value in data set [1] was 202. Moreover, the “SI HSC-2” value in [2] stood at 67.3. The “SI HSC-4” value in data set [3] is on record as 44.9. For the same compound, the CC50 at 48 h in data set [5] is 1.65 ± 0.17 µM; in data set [6], 4.17 ± 1.44 µM; in data set [7], 6.3 ± 0.7 µM; in [8], 4.04 µM. The same compound yielded an IC50 in data set [9] of 4.96 ± 0.28 µM. Moreover, in data set [11], the “effect on the mitochondrial membrane potential (MMP)” value was “interfered with the MMP”.
For `N[C@@H](Cc1ccc(N(CCCl)CCCl)cc1)C(=O)O` [Melphalan, reference compound], the CC50 is 48.5 ± 1.33 µM in data set [1] (Ca9-22, 48 h); 17.4 ± 0.88 µM in [3] (HSC-4, 48 h); 26.7 µM in data set [4]. Also, the CC50 at 48 h was 157 ± 38.2 µM in [5], 195 ± 4.04 µM in data set [6] and over 200 µM in [7]. Further, the IC50 in data set [12] was 56.7 µM.
`O=c1[nH]cc(F)c(=O)[nH]1` [5-fluorouracil]: the IC50 in data set [13] was 8.46 µM.
